{"source": "patent US20170105951A1", "about": "“COMBINATION THERAPY WITH THIOCOLCHICINE DERIVATIVES” (Abraxis BioScience, LLC, priority 2009, published 2017)", "key": {"[1]": {"system": "quail embryonic CAM vasculature", "experiment": "Shell-less quail embryonic CAM assay, vascular disrupting activity", "format": "in vivo", "method": "(§1) Methods: The antiangiogenic and VDA effects of ABI-011 were examined in vitro using tubule formation assay with human umbilical vein endothelial cells (HUVEC) and in vivo using the standard chick embryonic chorioallantoic membrane (CAM) assay with 3-day old embryos (n=18). The shell-less quail embryonic CAM assay was used to determine the time course of VDAs (ABI-011 vs. combretastatin A4 Phosphate [CA4P]). Quail embryos (n=36) were exposed to ABI-011 (1 to 16 μg/ml) on day 7 and digital CAM images were acquired over a 60 min period for scoring VDA. Subcutaneous human colon (HT29) tumors were grown in athymic nude mice and treated intravenously (IV) with ABI-011 (20-40 mg/kg; q4d×3, IV) or CA4P (200 mg/kg; qd×4, IV). The animal weights and tumor measurements were recorded three times weekly and adverse observations recorded."}, "[2]": {"system": "human colon (HT29) tumors", "experiment": "Subcutaneous HT29 colon tumor xenograft, ABI-011 vs CA4P (Example 3)", "format": "in vivo, athymic nude mice", "details": "CA4P 200 mg/kg, qd×4, IV", "method": "as §1"}, "[3]": {"system": "human PC3 prostate cancer xenograft", "experiment": "Subcutaneous PC3 prostate tumor xenograft, tumor growth inhibition", "format": "in vivo, athymic nude mice", "details": "Avastin 8 mg/kg 2x/wk", "method": "(§2) Methods: Subcutaneous human breast (MDA-MB-231), colon (HT29) and prostate (PC3) tumors were grown in athymic nude mice and treated intravenously (IV) with sub-optimal dose of ABI-011 alone at 20 mg/kg (q4d×3, q4d×2, or qd×1) and in combination with nab-paclitaxel (5 mg/kg, q4d×3, IV) or bevacizumab (8 mg/kg, 2×wkly, IP). The effect of dose, schedule, and sequence of combination regimen on therapeutic efficacy was tested. ABI-011 was administered 24 h before, concurrent with, or 24 h after nab-paclitaxel or bevacizumab treatment."}, "[4]": {"experiment": "Body weight change in PC3 tumor-bearing mice", "format": "in vivo, athymic nude mice", "details": "Avastin 8 mg/kg 2x/wk", "method": "as §2"}, "[5]": {"system": "human HT29 colon cancer xenograft", "experiment": "Subcutaneous HT29 colon tumor xenograft, antitumor activity (Example 1)", "format": "in vivo, athymic nude mice", "details": "Avastin 8 mg/kg 2x/wk", "method": "as §2"}}}
{"molecule": "COc1ccc(/C=C\\c2cc(OC)c(OC)c(OC)c2)cc1OP(=O)(O)O", "note": "[CA4P, combretastatin A4 Phosphate]", "values": [{"measurement": "Vascular disrupting activity (VDA), in words", "setting": "[1]; quail CAM, at concentrations much higher than the effective dose of ABI-011", "result": "only modest VDA"}, {"measurement": "IC50, vascular disrupting activity (VDA)", "setting": "[1]; quail embryonic CAM, scored over 60 min", "result": 13.1, "unit": "µg/mL"}, {"measurement": "LD50, embryonic mortalities", "setting": "[1]; quail embryos", "result": 12.8, "unit": "µg/mL"}, {"measurement": "Antitumor efficacy, in words", "setting": "[2]", "result": "ineffective"}]}
{"molecule": "Avastin: anti-VEGF antibody (bevacizumab)", "values": [{"measurement": "TGI, tumor growth inhibition on day 23", "setting": "[3]", "result": 52.9, "unit": "%"}, {"measurement": "BWC, percent body weight change on day 21", "setting": "[4]", "result": "−24.6", "unit": "%"}, {"measurement": "TGI, tumor growth inhibition on day 23", "setting": "[5]", "result": 75.3, "unit": "%"}, {"measurement": "Three-TDT", "setting": "[5]", "result": 19.3, "unit": "days"}]}
